Experimental data reported in patent US10294202B2, “Pyrrolidinones as herbicides” (FMC Corporation, priority 2013, dated 2019).

Assays:
[1] = test system: wheat (winter wheat); test: Test C pre-/postemergence herbicide test; assay type: in vivo, Triticum aestivum; conditions: for Wheat plant response rating: scale 0 to 100, 0 is no effect and 100 is complete control
How it was run: (§1)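 Visual rating, 0 (no effect) to 100 (complete control), versus untreated controls after 13 to 15 days in the greenhouse. Pre: seeds in loam/sand, sprayed at planting. Post: 1- to 4-leaf plants (2 to 18 cm) in peat-based mix. Compounds in non-phytotoxic solvent plus surfactant.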

[2] = test system: crabgrass, large; test: Test A pre-/postemergence herbicide test; assay type: in vivo, Digitaria sanguinalis
How it was run: (§2)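 Seeds sown in loam soil/sand blend received a preemergence directed soil spray of test chemical in non-phytotoxic solvent with surfactant; postemergence plants (2–10 cm, one- to two-leaf stage) were sprayed with the same formulation. After about 10 days in greenhouse, injury was rated visually versus untreated controls, 0 (no effect) to 100 (complete control).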

[3] = test system: ryegrass, Italian; test: Test C pre-/postemergence herbicide test; assay type: in vivo, Lolium multiflorum; conditions: for Ryegrass, Italian plant response rating: scale 0 to 100, 0 is no effect and 100 is complete control
How it was run: as §1

[4] = test system: morningglory; test: Test A pre-/postemergence herbicide test; assay type: in vivo, Ipomoea spp.
How it was run: as §2

[5] = test system: oat, wild; test: Test C pre-/postemergence herbicide test; assay type: in vivo, Avena fatua; conditions: for Oat, Wild plant response rating: scale 0 to 100, 0 is no effect and 100 is complete control
How it was run: as §1

[6] = Preemergence, 62 g ai/ha, scale 0 to 100
[7] = Preemergence, 125 g ai/ha, scale 0 to 100 (0 no effect, 100 complete control)
[8] = Postemergence, 1000 g ai/ha, 0 to 100 scale (0 no effect, 100 complete control)
[9] = Preemergence, 1000 g ai/ha, visual rating on 0 to 100 scale (0 no effect, 100 complete control), approx. 10 days
[10] = Postemergence, 31 g ai/ha, scale 0 (no effect) to 100 (complete control)
[11] = Postemergence, 62 g ai/ha, scale 0 to 100 (0 no effect, 100 complete control)
[12] = Postemergence, 125 g ai/ha, scale 0 to 100 (0 no effect, 100 complete control)
[13] = Postemergence, 250 g ai/ha, scale 0 to 100 (0 no effect, 100 complete control)
[14] = Postemergence, 125 g ai/ha, 0 to 100 scale, 0 no effect, 100 complete control
[15] = Postemergence, 500 g ai/ha, 0 to 100 scale (0 no effect, 100 complete control)
[16] = Preemergence, 125 g ai/ha, visual rating on 0 to 100 scale (0 no effect, 100 complete control)
[17] = preemergence, 500 g ai/ha, 0 to 100 scale

| SMILES | Plant response rating, Wheat [1, 6] | Plant response rating, Wheat [1, 7] | Plant response rating, Crabgrass, Large [2, 8] | Plant response rating, Crabgrass, Large [2, 9] | Plant response rating, Ryegrass, Italian [3, 6] | Plant response rating, Ryegrass, Italian [3, 7] | Plant response rating, Morningglory [4, 8] | Plant response rating, Oat, Wild [5, 6] | Plant response rating, Oat, Wild [5, 7] | Plant response rating, Wheat [1, 10] | Wheat plant response rating ([1]; Preemergence, 31 g ai/ha) | Plant response rating, Crabgrass, Large [2, 14] | Plant response rating, Crabgrass, Large [2, 15] | Crabgrass, Large plant response rating [2, 16] | Plant response rating, Crabgrass, Large [2, 17] | Ryegrass, Italian plant response rating ([3]; Preemergence, 31 g ai/ha) | Plant response rating, Morningglory [4, 14] | Plant response rating, Morningglory [4, 15] | Morningglory plant response rating [4, 16] | Plant response rating, Morningglory [4, 17] | also measured |
| --- | --- | --- | --- | --- | --- | --- | --- | --- | --- | --- | --- | --- | --- | --- | --- | --- | --- | --- | --- | --- | --- |
| Cc1ccccc1NC(=O)C1C(=O)NCC1c1cc(F)c(F)c(F)c1 (racemic) [Compound 35] | 0 | 10 | 90 | 90 | 5 | 5 | 0 | 0 | 0 | – | – | – | – | – | – | – | – | – | – | – | Plant response rating, Morningglory [4, 9]: 0 |
| O=C1NCC(c2cc(F)c(F)c(F)c2)C1C(=O)Nc1ccccc1F (racemic) [Compound 34] | 0 | 35 | 90 | 90 | 0 | 20 | 20 | 0 | 60 | 0 | – | – | – | – | – | – | – | – | – | – | Plant response rating, Wheat [1, 11]: 0; Plant response rating, Wheat [1, 12]: 0; Plant response rating, Wheat [1, 13]: 0; Plant response rating, Ryegrass, Italian [3, 10]: 0; Plant response rating, Ryegrass, Italian [3, 11]: 0; Plant response rating, Ryegrass, Italian [3, 12]: 0; Plant response rating, Ryegrass, Italian [3, 13]: 0; Plant response rating, Oat, Wild [5, 10]: 0; Plant response rating, Oat, Wild [5, 11]: 0; Plant response rating, Oat, Wild [5, 12]: 0; Plant response rating, Oat, Wild [5, 13]: 0 |
| O=C1NCC(c2ccc(F)c(C(F)(F)F)c2)C1C(=O)Nc1ccccc1F (racemic) [Compound 76] | 45 | 70 | – | – | 25 | 40 | – | – | – | 0 | 35 | 90 | 90 | 90 | 90 | 0 | 20 | 40 | 0 | 50 | Plant response rating, Wheat [1, 11]: 0; Plant response rating, Wheat [1, 12]: 0; Plant response rating, Wheat [1, 13]: 5; Plant response rating (scale of 0 to 100), Wheat ([1]; Preemergence, 250 g ai/ha): 80; Plant response rating, Ryegrass, Italian [3, 10]: 0; Plant response rating, Ryegrass, Italian [3, 11]: 0; Plant response rating, Ryegrass, Italian [3, 12]: 0; Plant response rating, Ryegrass, Italian [3, 13]: 5; Plant response rating (scale of 0 to 100), Ryegrass, Italian ([3]; Preemergence, 250 g ai/ha): 40; Plant response rating, Oat, Wild [5, 10]: 0; Plant response rating, Oat, Wild [5, 11]: 0; Plant response rating, Oat, Wild [5, 12]: 0; Plant response rating, Oat, Wild [5, 13]: 0 |
| O=C1NCC(c2cccc(Br)c2)C1C(=O)Nc1ccccc1F (stereo not drawn) [Compound 66] | 0 | 5 | – | – | 0 | 0 | – | 0 | 0 | – | 0 | 80 | 80 | 80 | 90 | 0 | 0 | 0 | 0 | 0 | Oat, Wild plant response rating ([5]; Preemergence, 31 g ai/ha): 0 |
| O=C1NCC(c2cccc(OC(F)(F)F)c2)C1C(=O)Nc1cccc(F)c1F (stereo not drawn) [Compound 68] | 5 | 30 | – | – | 0 | 0 | – | – | 0 | – | 0 | 90 | 90 | 90 | 90 | 0 | 0 | 0 | 0 | 0 | – |
| O=C1NCC(c2ccc(F)c(Cl)c2)C1C(=O)Nc1cccc(F)c1F (stereo not drawn) [Compound 59] | 0 | 0 | – | – | 0 | 0 | – | 0 | 0 | – | – | 70 | 90 | 90 | 90 | – | 0 | 0 | 0 | 0 | – |
| O=C1NCC(c2cc(F)c(F)c(F)c2)C1C(=O)Nc1ccccc1C(F)(F)F (racemic) [Compound 33] | 0 | 35 | 90 | 90 | 0 | 0 | 20 | 0 | 20 | – | – | – | – | – | – | – | – | – | – | – | – |
| O=C1NCC(c2ccccc2)C1C(=O)Nc1ccccc1F (racemic) [Compound 81] | 0 | 0 | – | – | 0 | 0 | – | 0 | 0 | 0 | 0 | 50 | 80 | 80 | 90 | 0 | 0 | 0 | 0 | 20 | Plant response rating, Wheat [1, 11]: 0; Plant response rating, Wheat [1, 12]: 0; Plant response rating, Wheat [1, 13]: 0; Plant response rating (scale of 0 to 100), Wheat ([1]; Preemergence, 250 g ai/ha): 0; Plant response rating, Ryegrass, Italian [3, 10]: 0; Plant response rating, Ryegrass, Italian [3, 11]: 0; Plant response rating, Ryegrass, Italian [3, 12]: 0; Plant response rating, Ryegrass, Italian [3, 13]: 0; Plant response rating (scale of 0 to 100), Ryegrass, Italian ([3]; Preemergence, 250 g ai/ha): 0; Plant response rating, Oat, Wild [5, 10]: 0; Plant response rating, Oat, Wild [5, 11]: 0; Plant response rating, Oat, Wild [5, 12]: 0; Plant response rating, Oat, Wild [5, 13]: 0; Oat, Wild plant response rating ([5]; Preemergence, 31 g ai/ha): 0; Plant response rating (scale of 0 to 100), Oat, Wild ([5]; Preemergence, 250 g ai/ha): 0 |
| O=C1NCC(c2ccc3c(c2)OC(F)(F)O3)C1C(=O)Nc1cccc(F)c1F (stereo not drawn) [Compound 62] | 0 | 0 | – | – | 0 | 30 | – | 40 | 50 | – | – | 80 | 90 | 90 | 90 | – | 0 | 0 | 0 | 0 | – |
| O=C1NCC(c2ccc(Cl)c(F)c2)C1C(=O)Nc1ccccc1F (stereo not drawn) [Compound 53] | 0 | 0 | – | – | 0 | 0 | – | 0 | 0 | – | – | 80 | 80 | 90 | 90 | – | 0 | 0 | 0 | 0 | – |
